Tests used:
Assay type in all cases: in vivo
db/db mice [1] = test: Test Example 5: serum insulin in glucose tolerance test after 7-day oral dosing of saccharides; details: for insulin concentration during glucose loading compared with the control group (in words): continuous daily oral dosing; for Serum insulin concentration after glucose loading, 30 minutes / Serum insulin concentration after glucose loading, 120 minutes / Serum insulin concentration after glucose loading, Zero minute: oral 200 + 300 mg/kg daily, 7 days, glucose 2 g/kg oral, mean ± SD
Experimental: (§1) Groups of male 9-week-old db/db mice (Clea Japan, Inc.) each consisting of 6 mice were fed CE-2 (Clea Japan, Inc.) for one week, so as to accustom the animals to the environment.
After acclimation, individual aqueous 10% solutions of lacto-N-neotetraose (abbreviated as “LNnT” hereinafter) and NeuAc were orally administered to the mice at 200 mg (saccharide)/kg body weight in the morning and at 300 mg (saccharide)/kg body weight in the evening. The same volume of saline was administered to the control group. The individual aqueous saccharide solutions and saline were both dosed daily to the mice for 7 days. During the dosing period, CE-2 was given together with drinking water ad libitum.
(§2) After 18-hour starvation from the final dosing on day 7, an aqueous 40% glucose solution was orally administered to 2 g (glucose)/kg body weight to the mice, to perform glucose tolerance test. Zero minute and 30 minutes after glucose loading, blood was taken from a tail vein. […] Blood was centrifuged (4° C., 10000 rpm, 10 minutes), to obtain serum.
(§3) Insulin in the serum recovered was assayed by enzyme immunoassay using Lebis Insulin kit (for rats-T) (Shibayagi, Co., Ltd.) in the same manner as in the Test Example 1.

db/db mice [2] = test: Test Example 4: serum insulin in glucose tolerance test after 7-day oral dosing of saccharides; details: for serum insulin concentration during glucose loading compared with the control group (in words): continuous daily oral dosing; for Serum insulin concentration after glucose loading, 30 minutes / Serum insulin concentration after glucose loading, 120 minutes / Serum insulin concentration after glucose loading, Zero minute: oral 200 + 300 mg/kg daily, 7 days, glucose 2 g/kg oral, mean ± SD
Experimental: as §1
After acclimation, individual aqueous 10% solutions of 3′-sialyllactose (abbreviated as “3′-SL” hereinafter), 6′-sialylactose (abbreviated as “6′-SL”) and 2′-FL were orally administered to the mice at 200 mg (saccharide)/kg body weight in the morning and at 300 mg (saccharide)/kg body weight in the evening. The both volume of saline was administered to the control group. The individual aqueous saccharide solutions and saline were both dosed daily to the mice for 7 days. During the dosing period, CE-2 was given together with drinking water ad libitum.
as §2, §3

db/db mice [3] = test: Test Example 3: serum insulin on day 8 after 7-day oral dosing of saccharides; details: for serum insulin concentration compared with the control group (in words): continuous daily oral dosing; for Serum insulin concentration after dosing of the individual saccharides: oral 200 + 300 mg/kg daily, 7 days, blood on day 8, no glucose loading, mean ± SD
Experimental: Group of male 9-week-old db/db mice (Clea Japan, Inc.) each consisting of 6 mice were fed CE-2 (Clea Japan, Inc.) for one week, so as to accustom the animals to the environment.
After acclimation, individual aqueous 10% solutions of globotriose (abbreviated “globo” hereinafter), N-acetyllactosamine (abbreviated as “LacNac” hereinafter) and N-acetylneuraminic acid (abbreviated as “NeuAc” hereinafter) were orally administered to the mice at 200 mg (saccharide)/kg body weight in the morning and at 300 mg (saccharide)/kg body weight in the evening.
The same volume of saline was administered to the control group. The individual aqueous saccharide solutions and saline were both dosed daily to the mice for 7 days. During the dosing period, CE-2 was given together with drinking water ad libitum.
Blood was centrifuged (4° C., 10000 rpm, 10 minutes), to obtain serum.
as §3

ICR mice [4] = test: Test Example 6: serum glucose after intravenous saccharide with simultaneous oral glucose loading
Experimental: (§4) Groups of male 9-week-old ICR mice (Japan SLC, Inc.) each consisting of 7 mice were fed CE-2 (Clea Japan, Inc.) for one week, so as to accustom the animals to the environment. Then, the mice were fasted for 18 hours.
(§5) An aqueous 10% solution of 2′-FL or NeuAc was intravenously administered to the mice to 500 mg (saccharide)/kg body weight, while an aqueous 40% glucose solution was orally administered simultaneously to 2 g (glucose)/kg body weight, to the mice. To the control group, physiological saline was administered intravenously, while glucose was orally administered simultaneously to 2 g/kg body weight. Zero minute and 30 minutes after glucose loading, blood was taken from a tail vein. […] Blood was centrifuged (4° C., 10000 rpm, 10 minutes), to obtain serum.
Furthermore, the glucose concentration in the serum recovered was also assayed. The glucose concentration was assayed, using Glucose CII-TEST WAKO (WAKO Pure Chemical Industries, Ltd.). 2 μl of the recovered serum was placed in a 96-well plate, followed by addition of 200 μl of the chromogenic solution attached to the kit, for incubation at 37° C. for 10 minutes. After incubation, the absorbance at 490 nm was assayed with a plate reader. Herein, a standard curve was prepared by using aqueous 500 mg/dl glucose solution as the standard solution to dilute the standard solution appropriately for the same reaction as for the serum, and plotting the relation between the concentration and the absorbance (490 nm). Based on the prepared standard curve and the absorbance from the reaction with the serum, the glucose concentration in the serum was determined.

ICR mice [5] = test: Test Example 6: serum insulin after intravenous saccharide with simultaneous oral glucose loading
Experimental: as §4, §5
Insulin in the serum recovered was assayed by enzyme immunoassay using Lebis Insulin kit (for mice-T) (Shibayagi, Co., Ltd.) in the same manner as in the Test Example 2.

[6] = ICR mice fasted 18 hours, 500 mg/kg intravenous with simultaneous glucose 2 g/kg oral, 30 minutes, mean ± SD
[7] = ICR mice fasted 18 hours, 500 mg/kg intravenous with simultaneous glucose 2 g/kg oral, 120 minutes, mean ± SD

SMILES | insulin concentration during glucose loading compared with the control group (in words) (db/db mice [1]) | Serum insulin concentration after glucose loading, 30 minutes (db/db mice [1]) [ng/mL] | Serum insulin concentration after glucose loading, 120 minutes (db/db mice [1]) [ng/mL] | Serum insulin concentration after glucose loading, Zero minute (db/db mice [1]) [ng/mL] | serum insulin concentration during glucose loading compared with the control group (in words) (db/db mice [2]) | Serum insulin concentration after glucose loading, 30 minutes (db/db mice [2]) [ng/mL] | Serum insulin concentration after glucose loading, 120 minutes (db/db mice [2]) [ng/mL] | Serum insulin concentration after glucose loading, Zero minute (db/db mice [2]) [ng/mL] | serum insulin concentration compared with the control group (in words) (db/db mice [3]) | Serum insulin concentration after dosing of the individual saccharides (db/db mice [3]) [ng/mL] | further results
CC(=O)N[C@H]1[C@H](O[C@H]2[C@@H](O)[C@@H](CO)O[C@@H](O[C@H]3[C@H](O)[C@@H](O)C(O)O[C@@H]3CO)[C@@H]2O)O[C@H](CO)[C@@H](O[C@@H]2O[C@H](CO)[C@H](O)[C@H](O)[C@H]2O)[C@@H]1O (mixture of isomers) [LNnT, lacto-N-neotetraose] | increased | 21.7 ± 13.8 | 25.9 ± 13.2 | 8.9 ± 2.0 | – | – | – | – | – | – | –
CC(=O)N[C@H]1[C@H]([C@H](O)[C@H](O)CO)O[C@@](O[C@H]2[C@@H](O)[C@@H](CO)O[C@@H](O[C@H]3[C@H](O)[C@@H](O)C(O)O[C@@H]3CO)[C@@H]2O)(C(=O)O)C[C@@H]1O (some centres unmarked) [3′-SL, 3′-sialyllactose] | – | – | – | – | increased | 5.1 ± 1.9 | 22.0 ± 12.5 | 6.0 ± 2.2 | – | – | –
CC(=O)N[C@H]1[C@H]([C@H](O)[C@H](O)CO)O[C@@](OC[C@H]2O[C@@H](O[C@H]3[C@H](O)[C@@H](O)[C@H](O)O[C@@H]3CO)[C@H](O)[C@@H](O)[C@H]2O)(C(=O)O)C[C@@H]1O [6′-SL, 6′-sialylactose] | – | – | – | – | increased | 6.6 ± 3.4 | 17.9 ± 6.3 | 5.9 ± 3.0 | – | – | –
OC[C@H]1O[C@H](O[C@@H]2[C@H](O)[C@@H](O)[C@H](O[C@H]3[C@H](O)[C@@H](O)C(O)O[C@@H]3CO)O[C@@H]2CO)[C@H](O)[C@@H](O)[C@H]1O (some centres unmarked) [Globo, globotriose] | – | – | – | – | – | – | – | – | increased | 23.7 ± 16.4 | –
CC(=O)N[C@H]1C(O)O[C@H](CO)[C@@H](O[C@@H]2O[C@H](CO)[C@H](O)[C@H](O)[C@H]2O)[C@@H]1O (some centres unmarked) [LacNac, N-acetyllactosamine] | – | – | – | – | – | – | – | – | increased | 26.8 ± 11.5 | –
CC(=O)N[C@H]1[C@H]([C@H](O)[C@H](O)CO)OC(O)(C(=O)O)C[C@@H]1O (some centres unmarked) [NeuAc, N-acetylneuraminic acid] | increased | 18.5 ± 8.5 | 30.3 ± 10.7 | 8.9 ± 7.7 | – | – | – | – | increased | 68.4 ± 45.9 | Serum glucose concentration after glucose loading, 30 minutes (ICR mice [4]; [6]): 300.9 ± 101.6 mg/dL; Serum glucose concentration after glucose loading, 120 minutes (ICR mice [4]; [7]): 197.6 ± 28.8 mg/dL; Serum glucose concentration after glucose loading, Zero minute (ICR mice [4]; ICR mice fasted 18 hours, 500 mg/kg intravenous with simultaneous glucose 2 g/kg oral, zero minute, mean ± SD): 102.6 ± 12.1 mg/dL; increase of the serum glucose concentration compared with the control group (in words) (ICR mice [4]; ICR mice, intravenous dosing): suppressed; Serum insulin concentration after glucose loading, 30 minutes (ICR mice [5]; [6]): 178.3 ± 105.5 pg/mL; Serum insulin concentration after glucose loading, 120 minutes (ICR mice [5]; [7]): 384.4 ± 394.1 pg/mL; serum insulin concentration after glucose loading compared with the control group (in words) (ICR mice [5]; ICR mice, intravenous dosing): increased
